Laboratory results from patent publication US8932617B2, “Methods for treating or preventing restenosis and other vascular proliferative disorders” (priority 2004, dated 2015).
Several values for one entry are separate records, joined by “and”; a condition that tells them apart may be missing. Equal entries are not always repeated. Entries after “also recorded” stand apart in the source; their conditions may differ. Where two headings read alike, the source gives them in different places. Marks after values point to notes of the source that are not given here.

How the values were obtained:
[1] = tested on: rat carotid artery, balloon mediated injury (restenosis); assay: Rat balloon carotid injury (Example 2), morphometric analysis at 2 and 6 weeks; format: in vivo; conditions: for decrease in neointimal area / decrease in intima/media ratio: 200 mg kg^-1 d^-1 i.p. for 7 days
Excerpt: Male Wistar rats, weighing 400-450 g (Harlan) were fed standard pellet feed and given water ad libitum. The experimental protocol was designed in accordance with Institutional ILACUC standards. Animals were anesthetized with Isoflurane (1.5-2%) in air. The right carotid artery was exposed and a 2F Fogarty balloon embolectomy catheter (Baxter) was inserted via an external carotid arteriotomy incision. The catheter was advanced to the common carotid artery, inflated to a pressure of 2 atm and rotated in a forward and retrograde direction. The catheter was then deflated and the process repeated three times. Treatment cohorts were divided into 5 groups (n=6-8/group): Control (sham operated), Didox (200 mg-kg^−1 d^−1), Imidate (200 mg kg^−1)HU (200 mg kg^−1 d^−1) and vehicle (saline). Drugs were administered daily by i.p. injection for a period of 7 days after injury. At 2 weeks post-injury, rats were euthanized by pentobarbital overdose and perfused with 10% buffered formalin Carotid arteries were removed and placed in the same fixative. Tissues were then embedded in paraffin, and 4 to 5 sections (4 μm) were cut at multiple levels. These sections were then stained with hematoxylin-eosin or elastic-van Gieson stain. Sections were examined microscopically and the cross-sectional areas of the lumen, neointima (from the internal elastic lamina to the lumen), and media were determined using digital microscopy with Spot Advanced software. The intima-to-media (I/M) ratio was then calculated from the determined mean. The data represent the mean±SD.
The effects of Didox, Imidate, and Hydroxyurea (HU) on the vascular remodeling process following arterial injury were determined using a rat model of balloon mediated carotid injury. Each compound (200 mg kg^−1 d^−1) was delivered via i.p. injection for a period of 7 days post injury. These dosages are based on previously published reports and represent ½ the maximum tolerated dose of Hydroyurea in rats (Gupta and Yaffe, (1982) Pediatr Pharmacol (New York) 2:85-91; Vaughan et al., (1989) Cancer Chemother Pharmacol 23:26-30).
At 14 days post injury the animals were sacrificed and morphometric analysis was carried out in order to asses the histopathological changes in the vessel wall (FIG. 1). […] HU afforded similar vascular protective effects to those observed with Didox and Imidate, resulting in a 55% decrease in neointimal area and a 63% decrease in intima/media ratio (FIG. 2). […] However, because the remodeling process occurs over a prolonged period of time, additional studies were performed in order to determine whether the vascular protective effects observed would be mitigated over time.
To further investigate long-term efficacy of the one week dosing regimen, the duration of the study period was increased to 6 weeks. […] The beneficial effect of ribonucleotide reductase inhibition persisted over the long term. Each compound (200 mg kg^−1 d^−1) was given i.p. for a period of 7 days followed by a 5 week recovery period. […] Similarly, Imidate offered a 61% reduction in neointimal area and a 62% reduction in intima/media ratio (FIG. 3).

[2] = tested on: Rat vascular smooth muscle cells; assay: SMC proliferation, cell count by flow cytometry; format: cell-based; conditions: 24 hours incubation, cells counted by flow cytometry, read-out: IC50 on inhibition of smooth muscle cell growth
Procedure: SMC were plated on 6 well dishes at a density of 2×10^5 cells per well. Cells were then treated with Didox (0-200 μM), Imidate (0-200 μM) or HU (0-1000 μM) and incubated for 24 hours. Following the 24 hour incubation period, the cells were trypsinized and collected in 15 mL centrifuge tubes. The cells were then centrifuged 5 minutes at 800×g. The supernatant was discarded and the pellet was resuspended in 5 ml PBS. The cells were centrifuged 6 minutes at 200×g. The supernatant was removed and the pellet was then thoroughly resuspended in 0.5 ml PBS. The cell suspension was transferred into tubes containing 70% ethanol, keeping the cells in fixative for greater than about 2 hours. The ethanol suspended cells were centrifuged 5 minutes at 200×g, and the ethanol was decanted. The cell pellet was resuspended in 5 ml PBS and after one minute was centrifuged 5 min at 200×g. The top layer of liquid was again removed and the cell pellet was resuspended in 1 ml PI/Triton X-100 staining solution with RNAse A. This staining solution was then incubated at room temperature for 30 minutes. Flow cytometry was then performed using a FACS Calibur (Becton Dickenson). The data are presented as the mean.
Didox, Imidate, and to a much lesser degree, HU, are known to be ribonucleotide reductase inhibitors (Elford, (1968) Biochem Biophys Res Commun 33:129-135; Elford et al., (1970) J Biol Chem 245:5228-5233; Elford et al., (1979) Cancer Res 39:844-851). ribonucleotide reductase catalyzes the reductive conversion of ribonucleotides to deoxynucleotides. This reductive reaction is a prime target for impeding cellular proliferation, and therefore amenable to inhibiting VSMC replication, because it is a rate limiting step in the biochemical pathway leading to DNA synthesis (Elford et al., (1970) J Biol Chem 245:5228-5233; Elford et al., (1979) Cancer Res 39:844-851; Takeda and Weber, (1981) Life Sci 28:1007-1014; Natsumeda et al., (1985) Cancer Res 45:2556-2559). […] Therefore, the IC50 of each compound on inhibition of smooth muscle cell growth was determined. […]

SMC dATP pools = assay: Intracellular dNTP quantitation (dATP pools) by HPLC; format: cell-based, rat; conditions: 24 hours; for dATP levels: control 303; for maximal reduction in dATP content: Didox 0-200 μM, Imidate 0-200 μM, HU 0-1000 μM
Procedure: SMC were plated in T150 flasks and treated with Didox (0-200 μM), Imidate (0-200 μM) or HU (0-1000 μM) and incubated for 24 hours. Following the 24 hour incubation period, the cells were trypsinized and collected in 50 mL centrifuge tubes along with the incubation media. All the extraction steps were performed on ice. Immediately before processing, cells were counted and viability determined using the trypan blue exclusion method. The cells were then centrifuged 5 minutes at 800×g. The cell pellet was then deproteinized with the same volume of 6% TCA, vortexed for 20 s and incubated on ice for 10 minutes. The acid cell extracts were centrifuged 10 min at 2000×g. The supernatants were then supplemented with an equal volume of distilled water, vortexed for 60 s and neutralized by the addition of 5M K2CO3 prior to HPLC analysis. dNTP detection was carried out using an ESA (Chelmsford, Mass.) HPLC chromatographic system with UV-Vis detection. Chromatographic separations were performed using a TosoHaas C18 reverse phase column (ODS 80Tm 250×4.6 mm, 5 μm pore). The mobile phase was delivered at a rate of 1.0 mL/min during the analysis using the following stepwise gradient elution program: A-B (80-20) at 0 min; (40-60) at 30 min; (40-60) at 40 min and (80-20) at 45 min. Buffer A contained 10 mM tetrabutylammonium sulfate, 10 mM KH2PO4 and 0.25% MeOH, and adjusted to pH 6.9. Buffer B consisted of 5.6 mM tetrabutylammonium sulfate, 50 mM KH2PO4 and 30% MeOH, and neutralized to pH 7.0. The injection volume for analysis was 50 μL. Detection was carried out at 254 nm.
In order to further validate that the observed anti-proliferative properties afforded by these compounds was through inhibition of ribonucleotide reductase activity, the effects of these compounds on intracellular dATP pools were measured.

rat vascular SMC = assay: Smooth muscle cell migration, wound scrape assay with PDGF; format: cell-based; conditions: for SMC migratory rate: 100 μM, PDGF 10 ng/mL, 24 hour period, control 15.8
Procedure: A wound scrape assay was performed using rat vascular SMC. The cells were grown to confluence on 60 mm dishes. The cells were then made quiescent by incubating them in media containing 0.1% serum for 24 hrs followed by treatment with Didox, Imidate (0-100 μM), or HU (0-1000 μM) in media containing 0.1% serum and platelet derived growth factor (PDGF) at concentration of 10 ng/mL. Linear wounds were made by scraping each plate with the tip of a 20 μL pipette. The ability of cells to migrate across the wound area was measured using digital microscopy. SPOT advanced software (Diagnostic Instruments, Inc., Sterling Heights, Mich.) was used to measure the wound immediately, 2, 4, 12 and 24 hrs following injury. The data are presented as rate of migration and represent the mean±SD.
SMC migration is also a component of neointimal proliferation. Therefore, additional studies were performed in order to determine the effects of these compounds on SMC migration. Using a wound scrape assay, SMC migration studies were carried out in the presence of Didox, Imidate, and HU. VSMC's were cultured to confluence on 60 mm dishes. The cells were made quiescent by incubating in media containing 0.1% serum. Following 24 hours of serum deprivation, Didox, Imidate, and HU were added to the wells (10-1000 μM) in the presence of PDGF (10 ng/mL) and a linear wound was made across the plate. SMC migration across the wound was monitored by digital microscopy over a 24 hour period. […] In contrast, HU (100 μM) had little effect on SMC migration, resulting in a migratory rate of […] (FIG. 4). […] This would be expected to contribute to the vascular protective effects afforded by these drugs.

[3] = tested on: rat carotid artery, balloon mediated injury (restenosis); assay: Rat model of balloon mediated carotid artery injury (Example 1), morphometric analysis; format: in vivo; conditions: two weeks post injury; intraperitoneal injection; vs untreated injured artery
Procedure: To determine the ability of the ribonucleotide reductase inhibitors to affect restenosis, a rat model of balloon mediated carotid artery injury was utilized. Percutaneous transluminal carotid angioplasty (PTCA) was performed using a 2F Fogarty Embolectomy Catheter, which was inserted through the right, external carotid artery and inflated (2 atm) and deflated four times inside the right common carotid artery and rotated to cause endothelial injury. Immediately following the carotid injury, the rats received ribonucleotide reductase inhibitors, Didox (N,3,4-trihydroxybenzamide) Imidate (ethyl-3,4,5-trihydroxybenzenecarboximidate.HCl), or Hydroxyurea via intraperitoneal injection. The degree of restenosis was assessed using morphometric analysis at two weeks post injury.

[4] = 6 weeks post injury, 5 week recovery

Compound | decrease in neointimal area [1, 4] | decrease in intima/media ratio ([1]; 14 days post injury) | decrease in neointimal area ([1]; 14 days post injury) | IC50 [2] | dATP levels (SMC dATP pools; 5 μM) | dATP levels (SMC dATP pools; 10 μM) | dATP levels (SMC dATP pools; 50 μM) | dATP levels (SMC dATP pools; 100 μM) | dATP levels (SMC dATP pools; 200 μM) | maximal reduction in dATP content (SMC dATP pools) | SMC migratory rate (rat vascular SMC) | Lumen, % change as compared to injured vessel (increase in lumen area) [3] | Neointima, % change as compared to injured vessel (decrease in neointimal formation) [3] | Neointima/Media, % change as compared to injured vessel (reduction in intima/media ratio) [3] | Wall Thickness, % change as compared to injured vessel (reduction) [3] | IC50 ([2]; Rattus norvegicus) | dATP levels (SMC dATP pools; 500 μM) | dATP levels (SMC dATP pools; 1000 μM) | effect on SMC migration (rat vascular SMC; HU concentrations up to 1 mM, listed as HU) | change in medial area ([1]; one week of systemic administration after balloon injury)
O=C(NO)c1ccc(O)c(O)c1 [Didox, N-3,4-trihydroxybenzamide] | 64% | 61% and 60% | 62% | 67 µM | 297 Pmoles/10^7 cells | 260 Pmoles/10^7 cells | 203* Pmoles/10^7 cells | 140* Pmoles/10^7 cells | 126* Pmoles/10^7 cells | 58% | 1.7 µm/h |  |  |  |  |  |  |  |  | 
NC(=O)NO [Hydroxyurea, reference compound] | 71% | 63% | 55% |  | 320 Pmoles/10^7 cells |  |  | 266 Pmoles/10^7 cells |  | 69% | 15.1 µm/h | ↑22 ± 5% | ↓ 91 ± 6% | ↓ 93 ± 7% | ↓ 54 ± 9% | 266 µM | 93 Pmoles/10^7 cells | 92 Pmoles/10^7 cells | No further inhibition; also recorded: no effect on SMC migration | 
CCOC(=N)c1cc(O)c(O)c(O)c1.Cl [Imidate, ethyl-3,4,5-trihydroxybenzenecarboximidate-HCl] | 61% | 55% and 60% | 57% |  | 293 Pmoles/10^7 cells | 311 Pmoles/10^7 cells | 210 Pmoles/10^7 cells | 184* Pmoles/10^7 cells | 173* Pmoles/10^7 cells | 42% | 0.9 µm/h | ↑19 ± 5% | ↓ 65 ± 7% | ↓ 69 ± 8% | ↓ 41 ± 7% | 82 µM |  |  |  | small but statistically significant decrease in medial area
